Test results reported in article PMC6627486, “Ipomoeassin F Binds Sec61α to Inhibit Protein Translocation” (Journal of the American Chemical Society, 2019).

Experiments:
[1] = target: T1, Sec61-mediated protein translocation (Canis lupus familiaris, UniProt P38377); test: In vitro translation and Sec61-dependent translocation into ER microsomes; type: biochemical, canine
T1 construct: ER microsomes derived from canine pancreas; from tissue; host or cells: canine pancreas ER microsomes (nuclease-treated)
From the text: (§1) In Vitro Membrane Translocation Assays.
(§2) Unless otherwise stated, all cDNAs are of human origin and as previously described: CytB5OPG2,16 GypC,17 ppαF (Saccharomyces cerevisiae),16 ppcecAOPG2 (Hyalophora cecropia),16 PPL (Bos Taurus),16 Sec61βOPG216 and VCAM1.17 Ii encodes residues 17 to 232 of the short form of human HLA class II histocompatibility antigen gamma chain (Ii; P04232, isoform 2). Linear DNA templates were generated by PCR and transcribed into RNA using T7 or SP6 polymerase (Promega).
(§3) In vitro translation and translocation into ER microsomes
(§4) Translation reactions (20 μL) were performed in nuclease-treated rabbit reticulocyte lysate (Promega) in the presence of EasyTag EXPRESS 35S Protein Labelling Mix containing [35S] methionine (Perkin Elmer) (0.533 MBq; 30.15 TBq/mmol). Amino acids minus methionine (Promega) were added to 25 µM each, […]
(§5) equivalent volume of DMSO, and nuclease-treated ER microsomes (from stock with OD280 = 44/mL) were added to 6.5% (v/v). Lastly, 10% volume of in vitro transcribed mRNA (from 200-1000 ng/μL stocks) encoding the relevant precursor protein was added and translation reactions performed for 20 min at 30°C. Following incubation with 0.1 mM puromycin for 5 min at 30°C to ensure translational termination and ribosome release, membrane-associated fractions were isolated by centrifugation through an 80 μL high-salt cushion (0.75 M sucrose, 0.5 M KOAc, 5 mM Mg(OAc)2, 50 mM Hepes-KOH, pH 7.9) at 100,000 x g for 10 min at 4°C in a TLA100 rotor (Beckmann). Membrane pellets were suspended directly in SDS (sodium dodecyl sulphate) sample buffer (0.02% bromophenol blue, 62.5 mM, 4% (w/v) SDS, 10% (v/v) glycerol, pH 7.6, 1 M dithiothreitol) and, where indicated, treated with 1,000 U of Endoglycosidase H (New England Biolabs) for 30 min at 37°C prior to analysis. All samples were denatured for 10 min at 70°C prior to resolution by SDS-PAGE (12% or 16% polyacrylamide gels, 120 V, 120 min), gels were fixed (20% MeOH, 10% AcOH) for 5 min, dried (BioRad gel dryer) for 2 h at 65°C and, following exposure to a phosphorimaging plate for 24-72 h, radiolabelled products were visualised using a Typhoon FLA-7000 (GE Healthcare).
(§6) Quantitative analysis of Ii membrane insertion was performed using AIDA v.5.0 (Raytest Isotopenmeβgeräte) whereby the ratio of the signal intensity for the 2Gly/0Gly forms was used as a read-out to estimate efficiency of integration into the ER membrane. This value was then expressed relative to the matched DMSO control in order to derive the mean relative ER insertion from three independent experiments (n=3). Statistical significance of the effectiveness of Ipom-F analogues (RM one-way ANOVA) was determined using Tukey’s multiple comparisons test. IC50 value estimates were determined using non-linear regression to fit data to a curve of variable slope (four parameters) using the least squares fitting method in which the bottom and top plateaus of the curve were defined as 0% and 100% respectively. The differences between the estimated IC50 values for the three compounds analysed were statistically significant (****) according to the extra-sum-of-squares F test. Statistical analyses and IC50 estimates were performed using Prism 7.0d (GraphPad) with statistical significance given as n.s., non - significant and ****, P < 0.0001.
(§7) U2-OS secNLuc-ATZ Secretion and Cell Viability Assays

[2] = system: Sec61-mediated protein translocation; test: as above; type: biochemical, canine
From the text: as §1, §2, §3, §4, §5, §6, §7

HCT-116 cells = test: Metabolic labelling of nascent proteins in HCT116 cells; type: cell-based, human
Method: Metabolic Labelling Assays in HCT116 Cells
HCT116 cells were counted using an automated cell counter (BioRad TC20) immediately prior to each experiment. 3 ml of HCT116 cells at a density of 0.166x10^6 cells/mL were seeded to 6-well plates (0.5x10^6 cells/well) and then incubated at 37 °C and 5% CO 2 for 24 h. The compounds were dissolved in DMSO to make drug stocks (10 mM). The stock solutions were diluted with DMEM high glucose culture medium lacking methionine and cysteine to make a fresh working solution immediately prior to each test. Cells were washed twice and 1ml of fresh DMEM lacking methionine and cysteine was added to each well.
Subsequently, the cells were treated with 250 µl of compound solutions in a total volume of 1 ,250 µl/well.
The plate was then incubated at 37 °C and 5% CO 2 for 30 min before 100 µCi 35S-labelled methionine/cysteine was added (Expre35s35s protein labelling mix). Plates were incubated for a further 30 min, then media collected and cells harvested by scraping after four washes in ice-cold PBS. Total protein was acquired by RIPA extraction from the cell pellet, cytoplasmic fraction was acquired by partial permeabilization of the outer cell membranes with 0.15% Digitonin followed by centrifugation, secreted proteins were acquired by TCA precipitation of the media. […]

T1 sequence (P38377 whole entry): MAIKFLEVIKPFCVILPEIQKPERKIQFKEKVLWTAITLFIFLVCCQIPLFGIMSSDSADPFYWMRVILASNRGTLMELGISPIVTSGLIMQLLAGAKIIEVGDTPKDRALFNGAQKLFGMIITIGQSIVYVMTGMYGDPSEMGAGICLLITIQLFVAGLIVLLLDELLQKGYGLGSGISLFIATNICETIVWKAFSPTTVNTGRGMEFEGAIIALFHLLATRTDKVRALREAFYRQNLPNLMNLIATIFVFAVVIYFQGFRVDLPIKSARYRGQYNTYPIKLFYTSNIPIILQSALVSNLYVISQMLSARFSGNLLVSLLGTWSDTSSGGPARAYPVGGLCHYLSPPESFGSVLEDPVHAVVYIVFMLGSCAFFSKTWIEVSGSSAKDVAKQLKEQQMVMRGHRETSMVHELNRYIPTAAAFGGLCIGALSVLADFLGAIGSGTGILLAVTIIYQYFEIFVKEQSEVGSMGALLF
T1 sequence (P60467 whole entry, further chain): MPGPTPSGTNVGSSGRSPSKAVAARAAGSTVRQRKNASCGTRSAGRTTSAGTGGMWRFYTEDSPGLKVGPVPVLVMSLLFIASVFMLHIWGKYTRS
T1 sequence (P60058 whole entry, further chain): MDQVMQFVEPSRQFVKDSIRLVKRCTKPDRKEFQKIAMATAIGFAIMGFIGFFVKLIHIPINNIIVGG

In the case of `C/C=C(\C)C(=O)O[C@@H]1[C@@H](O)[C@@H]2O[C@H]3[C@H](O[C@@H](CCCCC)CCCCCCC(=O)CCC(=O)OC[C@@H](O2)[C@H]1OC(=O)/C=C/c1ccccc1)O[C@H](C)[C@H](OC(C)=O)[C@@H]3O` [ipomoeassin F], the IC50 [1] is reported as ~50 nM, the “membrane insertion of type I and type II integral membrane proteins (VCAM1, Ii)” value [1] is reported as “potently inhibits” and the “translocation of short secretory protein prepro-cecropin A” value [1] is reported as “only a marginal impact”. The “translocation of secretory proteins bovine preprolactin and yeast prepro-alpha-factor” value ([1]; 1 μM compound) was “almost completely prevented”, the “inhibition of Ii membrane insertion” value ([1]; type II membrane protein Ii, ER microsomes) was “strongly inhibit membrane insertion” and the “membrane insertion of type III integral membrane protein glycophorin C” value [2] was “no effect”. The “in vitro integration of tail-anchored proteins (Sec61βOPG2, Cytb5OPG2)” value ([2]; Sec61-independent control substrates) was “unaffected”, the “inhibition of production of secreted proteins” value (HCT-116 cells; HCT-116, 100 nM, 35S labelling) was “strong inhibition” and the “nascent protein biogenesis in total cellular lysates and cytosolic fractions” value (HCT-116 cells; HCT-116, 35S labelling) was “lack of inhibition”.
